From patent publication US12630534B2 (TAKEDA PHARMACEUTICAL COMPANY LIMITED, priority 2020, dated 2026) come the findings set out here.

Each structure is given as a SMILES string.

The target of this assay is T1, human GPR139 (Homo sapiens, UniProt Q6DWJ6).
T1 construct: expressed in transfected cells; host or cells: CHO-TREx (Life Technologies) cells, expression induced with doxycycline
T1 sequence (Q6DWJ6 1-353): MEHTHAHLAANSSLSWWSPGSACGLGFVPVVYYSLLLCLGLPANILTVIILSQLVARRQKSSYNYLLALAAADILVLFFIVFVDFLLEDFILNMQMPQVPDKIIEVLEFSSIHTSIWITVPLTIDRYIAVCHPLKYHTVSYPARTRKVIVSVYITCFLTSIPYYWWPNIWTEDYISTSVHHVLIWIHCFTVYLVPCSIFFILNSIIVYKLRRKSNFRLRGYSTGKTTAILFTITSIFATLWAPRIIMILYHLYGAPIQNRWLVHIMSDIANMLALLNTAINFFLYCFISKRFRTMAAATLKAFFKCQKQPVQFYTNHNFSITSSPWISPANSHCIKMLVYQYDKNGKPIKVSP
In words: Inhibition rate of the amount of IP1 in GPR139-expressed CHO cells (inverse agonist assay, Test Example 2). The format is cell-based. The settings on record: relative value, inhibition rate of Example Compound 2 in Test Example 1 defined as 100%; for inhibition at 30 µM: CHO. In a few lines:
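CHO-TREx cells with doxycycline-inducible human GPR139 (2 μg/mL, 17 h) were incubated with compound at 2000 cells/well for 40 min at 37° C. IP1 quantified by HTRF (665/615 nm ratio ×10000); inhibition rate expressed relative to a reference compound defined as […].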

Turning to `CCn1cc(Cn2cc(C)n(-c3cc(C(F)(F)F)cc(OCC4CCCO4)n3)c2=O)cn1` (stereo not shown) [Example 108, 1-[(1-ethyl-1H-pyrazol-4-yl)methyl]-4-methyl-3-{6-[(oxolan-2-yl)methoxy]-4-(trifluoromethyl)pyridin-2-yl}-1,3-dihydro-2H-imidazol-2-one], the “Inhibition Rate at 30 μM” value (30 µM) was 102%.

`CCn1cc(Cn2cnn(-c3cc(OCC4CC(F)(F)C4)cc(C(F)(F)F)c3F)c2=O)cn1` [Example 151, 2-{5-[(3,3-difluorocyclobutyl)methoxy]-2-fluoro-3-(trifluoromethyl)phenyl}-4-[(1-ethyl-1H-pyrazol-4-yl)methyl]-2,4-dihydro-3H-1,2,4-triazol-3-one]: the inhibition (commonly the change of the read-out against control, counted positive when it falls) at 30 µM amounted to 98%.

`CCn1cc(Cn2c(C)c(C)n(-c3cc(C(F)(F)F)cc(OC[C@@H]4CCCO4)n3)c2=O)cn1` [Example 115, 1-[(1-ethyl-1H-pyrazol-4-yl)methyl]-4,5-dimethyl-3-[6-{[(2S)-oxolan-2-yl]methoxy}-4-(trifluoromethyl)pyridin-2-yl]-1,3-dihydro-2H-imidazol-2-one]: the inhibition at 30 µM amounted to 103%.

With `CCn1cc(Cn2c(C)cn(-c3cc(N4CCO[C@H](C)C4)cc(C4CC4)c3F)c2=O)cn1` [Example 140, 1-{3-cyclopropyl-2-fluoro-5-[(2R)-2-methylmorpholin-4-yl]phenyl}-3-[(1-ethyl-1H-pyrazol-4-yl)methyl]-4-methyl-1,3-dihydro-2H-imidazol-2-one], the inhibition at 30 µM came out at 98%.

Consider `CCn1cc(Cn2c(C)c(C)n(-c3cc(N4CCOC(F)(F)C4)cc(C(F)(F)F)c3)c2=O)cn1` [Example 63, 1-[3-(2,2-difluoromorpholin-4-yl)-5-(trifluoromethyl)phenyl]-3-[(1-ethyl-1H-pyrazol-4-yl)methyl]-4,5-dimethyl-1,3-dihydro-2H-imidazol-2-one], for which the inhibition at 30 µM is 100%.

As for `CCn1cc(Cn2ccn(-c3cc(N4CCOC5(CC5)C4)cc(C(F)(F)F)c3F)c2=O)cn1` [Example 43, 1-[(1-ethyl-1H-pyrazol-4-yl)methyl]-3-[2-fluoro-5-(4-oxa-7-azaspiro[2.5]octan-7-yl)-3-(trifluoromethyl)phenyl]-1,3-dihydro-2H-imidazol-2-one], the inhibition at 30 µM stood at 100%.

Turning to `CCn1cc(Cn2cc(C)n(-c3cc(N4CCC(F)(F)C4)cc(C(F)(F)F)c3)c2=O)cn1` [Example 24, 3-[3-(3,3-difluoropyrrolidin-1-yl)-5-(trifluoromethyl)phenyl]-1-[(1-ethyl-1H-pyrazol-4-yl)methyl]-4-methyl-1,3-dihydro-2H-imidazol-2-one], the inhibition at 30 µM was found to be 100%.

With `CCn1cc(Cn2c(C)c(C)n(-c3cc(OC[C@@H]4CCCO4)cc(C(F)(F)F)c3)c2=O)cn1` [Example 100], the inhibition at 30 µM is 99%.

Take `CCn1cc(Cn2c(C(F)(F)F)cn(-c3cc(N4CCO[C@H](C)C4)cc(C4CC4(F)F)c3F)c2=O)cn1` (stereo partly drawn) [Example 143, 1-{3-(2,2-difluorocyclopropyl)-2-fluoro-5-[(2R)-2-methylmorpholin-4-yl]phenyl}-3-[(1-ethyl-1H-pyrazol-4-yl)methyl]-4-(trifluoromethyl)-1,3-dihydro-2H-imidazol-2-one]: the inhibition at 30 µM came to 101%.

Consider `CCn1cc(C(C)n2ccn(-c3cc(N4CCO[C@H](C)C4)cc(C(F)(F)F)c3F)c2=O)cn1` (stereo partly drawn) [Example 9, 1-[1-(1-ethyl-1H-pyrazol-4-yl)ethyl]-3-{2-fluoro-5-[(2R)-2-methylmorpholin-4-yl]-3-(trifluoromethyl)phenyl}-1,3-dihydro-2H-imidazol-2-one], for which the inhibition at 30 µM turned out to be 102%.

As for `CCn1cc(Cn2c(C)cn(-c3nc(N4CCO[C@H](C)C4)cc(C(F)(F)F)c3C)c2=O)cn1` [Example 45, 3-[(1-ethyl-1H-pyrazol-4-yl)methyl]-4-methyl-1-{3-methyl-6-[(2R)-2-methylmorpholin-4-yl]-4-(trifluoromethyl)pyridin-2-yl}-1,3-dihydro-2H-imidazol-2-one], the inhibition at 30 µM came out at 101%.

For `CCn1cc(Cn2ccn(-c3cc(N4CCO[C@@H](C)C4)cc(C(F)(F)F)c3F)c2=O)cn1` [Example 11, 1-[(1-ethyl-1H-pyrazol-4-yl)methyl]-3-{2-fluoro-5-[(2S)-2-methylmorpholin-4-yl]-3-(trifluoromethyl)phenyl}-1,3-dihydro-2H-imidazol-2-one], the inhibition at 30 µM amounted to 98%.

Regarding `CCn1cc(Cn2c(Cl)nn(-c3cc(N4CCO[C@H](C)C4)cc(C(F)(F)F)c3F)c2=O)cn1` [Example 155, 5-chloro-4-[(1-ethyl-1H-pyrazol-4-yl)methyl]-2-{2-fluoro-5-[(2R)-2-methylmorpholin-4-yl]-3-(trifluoromethyl)phenyl}-2,4-dihydro-3H-1,2,4-triazol-3-one], the inhibition at 30 µM stood at 101%.

Turning to `CCn1cc(Cn2c(C)cn(-c3cc(N4CCC(F)(F)CC4)cc(Cl)c3F)c2=O)cn1` [Example 167, 1-[3-chloro-5-(4,4-difluoropiperidin-1-yl)-2-fluorophenyl]-3-[(1-ethyl-1H-pyrazol-4-yl)methyl]-4-methyl-1,3-dihydro-2H-imidazol-2-one], the inhibition at 30 µM worked out at 97%.

Regarding `CCn1cc(Cn2ccn(-c3cc(N4CCOC(C)(C)C4)cc(C(F)(F)F)c3F)c2=O)cn1` [Example 12, 1-[5-(2,2-dimethylmorpholin-4-yl)-2-fluoro-3-(trifluoromethyl)phenyl]-3-[(1-ethyl-1H-pyrazol-4-yl)methyl]-1,3-dihydro-2H-imidazol-2-one], the inhibition at 30 µM was found to be 98%.

In the case of `CCn1cc(Cn2cc(C)n(-c3nc(N4CCOC(C)(C)C4)cc(C(F)(F)F)n3)c2=O)cn1` [Example 134, 3-[4-(2,2-Dimethylmorpholine-4-yl)-6-(trifluoromethyl)pyrimidine-2-yl]-1-[(1-ethyl-H-pyrazole-4-yl)methyl]-4-methyl-1,3-dihydro-2H-imidazole-2-one], the inhibition at 30 µM came out at 98%.

Regarding `CC(C)n1cc(Cn2ccn(-c3nc(N4CCOC(C)(C)C4)cc(C(F)(F)F)c3F)c2=O)cn1` [Example 132, 1-[6-(2,2-dimethylmorpholin-4-yl)-3-fluoro-4-(trifluoromethyl)pyridin-2-yl]-3-{[1-(propan-2-yl)-1H-pyrazol-4-yl]methyl}-1,3-dihydro-2H-imidazol-2-one], the inhibition at 30 µM amounted to 99%.

For `Cc1nn(-c2cc(N3CCC(F)(F)C3)cc(C(F)(F)F)c2F)c(=O)n1Cc1cnn(C(C)C)c1` [Example 94, 2-[5-(3,3-difluoropyrrolidin-1-yl)-2-fluoro-3-(trifluoromethyl)phenyl]-5-methyl-4-{[1-(propan-2-yl)-1H-pyrazol-4-yl]methyl}-2,4-dihydro-3H-1,2,4-triazol-3-one], the inhibition at 30 µM is 99%.

In the case of `CCn1cc(Cn2c(C)c(C)n(-c3cc(C(F)(F)F)c(F)c(N4CCO[C@H](C)C4)n3)c2=O)cn1` [Example 150, 1-[(1-ethyl-1H-pyrazol-4-yl)methyl]-3-{5-fluoro-6-[(2R)-2-methylmorpholin-4-yl]-4-(trifluoromethyl)pyridin-2-yl}-4,5-dimethyl-1,3-dihydro-2H-imidazol-2-one], the inhibition at 30 µM stood at 101%.

Regarding `CCn1cc(Cn2cc(C)n(-c3cc(OCC4CC(F)(F)C4)cc(C(F)F)c3)c2=O)cn1` [Example 68, 3-{3-[(3,3-difluorocyclobutyl)methoxy]-5-(difluoromethyl)phenyl}-1-[(1-ethyl-1H-pyrazol-4-yl)methyl]-4-methyl-1,3-dihydro-2H-imidazol-2-one], the inhibition at 30 µM is 98%.

For the molecule `CCn1cc(Cn2c(C)c(C)n(-c3cc(C(F)(F)F)cc(OC[C@H]4CCCO4)n3)c2=O)cn1` [Example 114, 1-[(1-ethyl-1H-pyrazol-4-yl)methyl]-4,5-dimethyl-3-[6-{[(2R)-oxolan-2-yl]methoxy}-4-(trifluoromethyl)pyridin-2-yl]-1,3-dihydro-2H-imidazol-2-one], the inhibition at 30 µM is 103%.

In the case of `CCn1cc(Cn2ccn(-c3nc(N4CCOC(F)(F)C4)cc(C(F)(F)F)c3F)c2=O)cn1` [Example 123, 1-[6-(2,2-difluoromorpholin-4-yl)-3-fluoro-4-(trifluoromethyl)pyridin-2-yl]-3-[(1-ethyl-1H-pyrazol-4-yl)methyl]-1,3-dihydro-2H-imidazol-2-one], the inhibition at 30 µM was determined as 102%.

As for `CCn1cc(Cn2c(C)cn(-c3cc(OC4CCOCC4)cc(C(F)(F)F)c3F)c2=O)cn1` [Example 117, 3-[(1-ethyl-1H-pyrazol-4-yl)methyl]-1-{2-fluoro-5-[(oxan-4-yl)oxy]-3-(trifluoromethyl)phenyl}-4-methyl-1,3-dihydro-2H-imidazol-2-one], the inhibition at 30 µM amounted to 100%.

With `CCn1cc(Cn2cc(C)n(-c3cc(OCC4CC4)cc(C(F)(F)F)c3)c2=O)cn1` [Example 17, 3-[3-(cyclopropylmethoxy)-5-(trifluoromethyl)phenyl]-1-[(1-ethyl-1H-pyrazol-4-yl)methyl]-4-methyl-1,3-dihydro-2H-imidazol-2-one], the inhibition at 30 µM came to 99%.

As for `CCn1ncc(Cn2ccn(-c3cc(N4CCO[C@H](C)C4)cc(C(F)(F)F)c3F)c2=O)c1C` [Example 13, 1-[(1-ethyl-5-methyl-1H-pyrazol-4-yl)methyl]-3-{2-fluoro-5-[(2R)-2-methylmorpholin-4-yl]-3-(trifluoromethyl)phenyl}-1,3-dihydro-2H-imidazol-2-one], the inhibition at 30 µM worked out at 101%.
